# According to patent publication US8871728B2, “Non-peptide macrocyclic histone deacetylese (HDAC) inhibitors and methods of making and using thereof” (Georgia Tech Research Corporation, priority 2007, dated 2014):
# “And” between values parts separate entries of the source, which are not always exact repeats. Equal entries are not always repeated. Where two headings read alike, the source gives them in different places.
# What was measured:
# [1] = tested on: Plasmodium falciparum (W2 clone), chloroquine-resistant; experiment: Plasmodium growth inhibition, parasite lactate dehydrogenase assay (Malstat); assay type: cell-based; details: for IC50: Plasmodium falciparum; for Plasmodium falciparum (W2 clone) IC50: chloroquine-resistant
# Description: (§1) The compounds described herein were also evaluated for parasitic activity against Plasmodium falciparum and Leismania donovani. P. falciparum and L. donovani are the causative parasites of malaria and leishmaniasis, two human diseases which constitute a serious threat to public health in tropical and sub-tropical countries. Antimalarial activity was evaluated in vitro using chloroquine-sensitive (D6, Sierra Leone) and chloroquine-resistant (W2, Indochina) strains of P. falciparum. Antileishmanial activity was evaluated in vitro against the promastigote stage of L. donovani.
# (§2) Plasmodium growth inhibition was determined by a parasite lactate dehydrogenase assay using Malstat reagent. Inhibition of viability of the promastigote stage of L. donovani was determined using standard Alamar blue assay, modified to a fluorometric assay.
# as §1, with “Macrocyclic histone deacetylase inhibitors” for “The compounds described herein”, “were” for “were also”
# as §2
# [2] = tested on: Plasmodium falciparum (D6 clone), chloroquine-sensitive; experiment: as above; assay type: cell-based; details: for IC50: Plasmodium falciparum; for Plasmodium falciparum (D6 clone) IC50: chloroquine-sensitive
# Description: as §1, §2
# as §1, with “Macrocyclic histone deacetylase inhibitors” for “The compounds described herein”, “were” for “were also”
# as §2
# [3] = tested on: promastigote stage of L. donovani; experiment: Antileishmanial Alamar blue fluorometric assay; assay type: cell-based; details: promastigotes
# Description: as §1, §2
# as §1, with “Macrocyclic histone deacetylase inhibitors” for “The compounds described herein”, “were” for “were also”
# as §2
# [4] = tested on: HeLa nuclear extract HDAC1/2; experiment: Fluor de Lys HDAC inhibition, HeLa nuclear extract; assay type: biochemical, human; details: Table 8; read-out: HDAC Inhibition IC50
# From the text: Fluor de Lys™ is a fluorescence based HDAC activity assay comprising a combination of fluorogenic Histone deAcetylase Lysyl substrate and a developer. The kit is a highly sensitive and convenient alternative to radiolabeled, acetylated histones or peptide/HPLC methods for the assay of histone deacetylases. This assay is based on the ability of HeLa nuclear extract, which is enriched in HDAC activity, to mediate the deacetylation of the acetylated lysine side chain of the Fluor de Lys substrate. The assay procedure requires two steps. First, incubation of the HeLa nuclear extract with the Fluor de Lys substrate results in substrate deacetylation and thus sensitizes it to the second step. In the second step, treatment of the deacetylated substrate with the Fluor de Lys developer produces a fluorophore. The substrate-developer reaction, under normal circumstances goes to completion in less than 1 min at 25° C. The kit used was the Fluorimetric Assay/Drug Discovery Kit—AK-500 Manual Fluorescent Assay System available from BIOMOL® International, Plymouth Meeting, Pa.
# Each IC50 value was obtained by averaging three independent experiments.
# [5] = tested on: LNCaP (androgen dependent prostate cancer); experiment: Anti-cancer activity screen; assay type: cell-based
# HDAC1 = HDAC1 (Homo sapiens (Human), UniProt Q13547); experiment: SAMDI mass spectrometry HDAC inhibition assay; assay type: biochemical; details: for HDAC1 inhibition, symbol: SAMDI
# Chain of HDAC1 (Q13547 whole entry): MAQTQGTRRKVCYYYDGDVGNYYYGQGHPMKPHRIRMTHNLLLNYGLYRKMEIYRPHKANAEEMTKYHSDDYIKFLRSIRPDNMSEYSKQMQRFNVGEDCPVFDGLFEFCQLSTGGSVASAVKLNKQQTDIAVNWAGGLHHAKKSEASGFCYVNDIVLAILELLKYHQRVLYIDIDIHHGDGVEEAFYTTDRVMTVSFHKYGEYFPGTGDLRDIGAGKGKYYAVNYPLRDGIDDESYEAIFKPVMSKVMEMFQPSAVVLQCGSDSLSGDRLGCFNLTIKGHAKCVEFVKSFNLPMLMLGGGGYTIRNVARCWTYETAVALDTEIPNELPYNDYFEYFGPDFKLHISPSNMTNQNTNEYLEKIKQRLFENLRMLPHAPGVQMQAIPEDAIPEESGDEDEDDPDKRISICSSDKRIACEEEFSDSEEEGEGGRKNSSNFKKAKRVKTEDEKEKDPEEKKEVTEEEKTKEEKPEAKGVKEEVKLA
# Description: (§3) There is precedence that fluorescently labeled substrates can perturb enzyme activity and the effect of inhibitors. […] Additionally, 3-hydroxypyridine-2-ones are highly colored solids and might lead to false positive signals. Mindful of these facts, a label-free SAMDI (self-assembled monolayers for MALDI) mass spectrometry assay was also used to assess HDAC inhibition.
# (§4) The SAMDI technique, wherein self-assembled monolayers (SAM) of alkanethiolates on gold are analyzed by matrix assisted laser desorption/ionization (MALDI) mass spectrometry, has been widely used to characterize many biochemical activities, including the deacetylase enzyme family.
# HDAC8 = HDAC8 (Homo sapiens (Human), UniProt Q9BY41); experiment: SAMDI mass spectrometry HDAC inhibition assay; assay type: biochemical
# Chain of HDAC8 (Q9BY41 whole entry): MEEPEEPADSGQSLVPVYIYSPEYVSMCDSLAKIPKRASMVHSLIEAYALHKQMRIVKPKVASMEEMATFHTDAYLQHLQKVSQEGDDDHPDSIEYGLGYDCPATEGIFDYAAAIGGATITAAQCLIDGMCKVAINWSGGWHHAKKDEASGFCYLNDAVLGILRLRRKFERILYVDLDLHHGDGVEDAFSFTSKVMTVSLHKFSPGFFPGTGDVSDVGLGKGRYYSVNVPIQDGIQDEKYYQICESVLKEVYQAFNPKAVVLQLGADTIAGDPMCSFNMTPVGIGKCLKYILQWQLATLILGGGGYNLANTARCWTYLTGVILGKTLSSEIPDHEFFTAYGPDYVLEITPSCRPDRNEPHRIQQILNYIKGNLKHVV
# Description: as §3, §4
# HDAC6 = HDAC6 (Homo sapiens (Human), UniProt Q9UBN7); experiment: SAMDI mass spectrometry HDAC inhibition assay; assay type: biochemical
# Chain of HDAC6 (Q9UBN7 whole entry): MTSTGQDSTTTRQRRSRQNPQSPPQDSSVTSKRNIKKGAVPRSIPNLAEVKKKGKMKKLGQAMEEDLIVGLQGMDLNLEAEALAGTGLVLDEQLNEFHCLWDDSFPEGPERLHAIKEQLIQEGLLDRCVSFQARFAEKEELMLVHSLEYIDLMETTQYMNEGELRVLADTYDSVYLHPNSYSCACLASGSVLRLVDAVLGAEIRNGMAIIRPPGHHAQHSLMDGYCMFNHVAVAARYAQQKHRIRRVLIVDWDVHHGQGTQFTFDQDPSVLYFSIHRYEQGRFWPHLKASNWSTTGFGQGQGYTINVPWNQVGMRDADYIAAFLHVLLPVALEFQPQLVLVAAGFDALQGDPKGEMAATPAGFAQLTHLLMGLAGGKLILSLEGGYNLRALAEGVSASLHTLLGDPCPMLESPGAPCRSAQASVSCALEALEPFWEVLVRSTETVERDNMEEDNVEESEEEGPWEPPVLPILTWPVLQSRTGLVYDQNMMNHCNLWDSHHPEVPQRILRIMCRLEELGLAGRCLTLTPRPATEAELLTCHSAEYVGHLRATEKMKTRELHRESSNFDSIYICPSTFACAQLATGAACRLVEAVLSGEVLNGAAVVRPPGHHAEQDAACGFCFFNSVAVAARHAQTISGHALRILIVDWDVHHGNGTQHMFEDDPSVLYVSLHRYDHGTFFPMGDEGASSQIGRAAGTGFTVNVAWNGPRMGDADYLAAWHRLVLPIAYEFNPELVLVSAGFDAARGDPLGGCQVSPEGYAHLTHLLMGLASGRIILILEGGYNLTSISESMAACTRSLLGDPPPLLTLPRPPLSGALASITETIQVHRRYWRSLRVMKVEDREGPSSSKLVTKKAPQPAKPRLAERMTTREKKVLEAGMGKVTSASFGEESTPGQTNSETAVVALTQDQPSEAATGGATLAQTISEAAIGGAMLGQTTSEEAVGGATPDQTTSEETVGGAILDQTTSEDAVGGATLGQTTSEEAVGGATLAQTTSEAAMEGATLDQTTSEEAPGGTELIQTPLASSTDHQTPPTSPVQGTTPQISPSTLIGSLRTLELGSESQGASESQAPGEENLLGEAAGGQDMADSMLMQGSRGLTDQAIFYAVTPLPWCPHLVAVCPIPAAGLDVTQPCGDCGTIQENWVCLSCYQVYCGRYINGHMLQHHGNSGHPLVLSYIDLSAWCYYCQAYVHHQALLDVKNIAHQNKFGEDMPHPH
# Description: as §3
# as §4, with “family. The SAMDI assay was used to measure the inhibition constant (K1) of fragments against HDAC1, HDAC6 and HDAC8 using a previously identified preferred HDAC substrate.” for “family.”
# [6] = tested on: Jurkat (T cell leukemia overexpressing HDAC8); experiment: Anti-cancer activity screen; assay type: cell-based
# [7] = tested on: DU 145 (androgen independent prostate cancer); experiment: Anti-cancer activity screen; assay type: cell-based
# [8] = W2, chloroquine-resistant, read-out: Plasmodium falciparum (W2 clone) IC50
# [9] = D6, chloroquine-sensitive, read-out: Plasmodium falciparum (D6 clone) IC50
# [10] = Table 14, read-out: HDAC 8 (nm)
# [11] = Table 14, read-out: HDAC 6 (nm)
smiles,measurement,setting,value
"CCN(CC)CCCC(C)Nc1ccnc2cc(Cl)ccc12 (stereo not drawn) [Chloroquine, chloroquine, reference compound]",IC50,"[1]; W2, read-out: Plasmodium falciparum (W2 clone) IC50 (μg/ml), chloroquine-resistant",0.125 µg/mL
same,Plasmodium falciparum (W2 clone) IC50,[1],0.14 µg/mL
same,IC50,"[2]; D6, read-out: Plasmodium falciparum (D6 clone) IC50 (μg/ml), chloroquine-sensitive",0.017 µg/mL
same,Plasmodium falciparum (D6 clone) IC50,[2],11 ng/mL
"N=C(N)c1ccc(OCCCCCOc2ccc(C(=N)N)cc2)cc1 [Pentamidine, pentamidine, reference compound]",IC50,"[3]; Leishmania donovani, read-out: Antileshmanial activity IC50",0.9 µg/mL
same,Antileshmanial activity IC50,[3],1.4 µg/mL
C=C1C[C@H](CC)C(C)(C)[C@H](C)[C@@H](C)N(C)C[C@H](C)CC(C)(C)[C@H](C[C@@H]2C[C@H](C)C[C@H](N(C)Cc3ccc(C(C)C)cc3)[C@H]2C)[C@@H](C)[C@H](C)[C@H]1C [Compd 4],IC50,[1]; [8],1.7 µg/mL
same,S.I. (W2),"[1]; selective toxicity index, Vero versus W2, value in brackets",> 2.8
same,IC50,[2]; [9],1.3 µg/mL
same,S.I. D6,"[2]; selective toxicity index, Vero versus D6",> 3.7
same,IC50,[4],88.8 nM
"C[C@@H]1[C@H](O)[C@@H](C)/C=C/C=C/C=C/C=C/C=C/C=C/C=C/[C@H](O[C@@H]2O[C@H](C)[C@@H](O)[C@H](N)[C@@H]2O)C[C@@H]2O[C@](O)(C[C@@H](O)C[C@@H](O)[C@H](O)CC[C@@H](O)C[C@@H](O)CC(=O)O[C@H]1C)C[C@H](O)[C@H]2C(=O)O [Amphotericine B, Amphotericin B, reference compound]",Antileshmanial activity IC90,[3],0.32 µg/mL and 0.3 µg/mL
"C[C@@H]1CC[C@H]2[C@@H](C)C(=O)O[C@@H]3O[C@@]4(C)CC[C@@H]1[C@]32OO4 [Artemisinin, artemisinin, reference compound]",IC50,[1]; [8],0.006 µg/mL
same,Plasmodium falciparum (W2 clone) IC50,[1],0.009 µg/mL
same,IC50,[2]; [9],0.004 µg/mL
same,Plasmodium falciparum (D6 clone) IC50,[2],6 ng/mL
Oc1cccn(Cc2ccc(Cn3cc(-c4ccccc4)nn3)cc2)c1=S [Compound 168],IC50,"[5]; Homo sapiens, LNCaP",7.8 ± 0.55 µM
same,"HDAC1 inhibition, symbol",HDAC1,NI (No significant Inhibition (below 20% Inhibition))
same,IC50,HDAC8; [10],5470 ± 1600 nM
same,IC50,HDAC6; [11],534 ± 185 nM
same,IC50,"[6]; Homo sapiens, Jurkat; read-out: Jurkat (μm)",6.55 ± 0.91 µM
same,IC50,"[7]; Homo sapiens, DU-145, calculated IC50 above 20 μM (highest concentration tested) also reported as >20",16.1 ± 2.24 µM
"N#Cc1cccc(-c2cn(CCCCCn3cccc(O)c3=S)nn2)c1 [Compound 167e, 1-(3-Benzonitrile)triazolylpentyl-3-hydroxypyridine-2-thione]",IC50,[5],3.49 ± 0.34 µM
same,IC50,"[5]; Homo sapiens, LNCaP",4.95 ± 0.43 µM
same,IC50,"HDAC8; SAMDI, read-out: HDAC8 IC50",2830 nM
same,IC50,HDAC8; [10],2400 ± 263 nM
same,IC50,"HDAC6; SAMDI, read-out: HDAC6 IC50",356 nM
same,IC50,HDAC6; [11],637 nM and 356 nM
same,IC50,"[6]; Homo sapiens, Jurkat, read-out: Jurkat (μm)",5.18 ± 1.18 µM
same,IC50,[6]; read-out: Jurkat (μm),3.44 ± 0.57 µM
"Oc1cccn(CCCCCCCn2cc(-c3ccccc3)nn2)c1=S [Compound 162f, 1-Phenyltriazolylheptyl-3-hydroxypyridine-2-thione]",IC50,[5],11 ± 1.92 µM
same,"HDAC1 inhibition, symbol",HDAC1,NI (No significant Inhibition (below 20% Inhibition))
same,HDAC1 % inhibition,"HDAC1; at 10 μM, given if the IC50 was above 10 μM",35%
same,IC50,"HDAC8; SAMDI, read-out: HDAC8 IC50",232 ± 19 nM
same,IC50,HDAC8; [10],1380 ± 205 nM
same,IC50,"HDAC6; SAMDI, read-out: HDAC6 IC50",955 ± 150 nM
same,IC50,HDAC6; [11],955 ± 150 nM
same,IC50,[6]; read-out: Jurkat (μm),9.04 ± 1.31 µM
same,IC50,[7],17.7 ± 3.28 µM
